Among the data in BindingDB's records for patent WO2025049746 (Eikon Therapeutics, 2025) are IC50 values, retold here.

Assay [1] concerns the target Bifunctional 3'-5' exonuclease/ATP-dependent helicase WRN (Homo sapiens, UniProt Q14191). The assay is described as follows: ADP-Glo Kinase Assay. How it is done: ATPase activity was measured using the ADP-Glo Kinase Assay following the manufacturers recommended protocol.
On the technique in general: In ADP-Glo the light output rises with the ADP produced.

The target in assay [2] is T1, Bifunctional 3'-5' exonuclease/ATP-dependent helicase WRN [480-1251] (UniProt Q14191).
T1 construct: 480-1251
T1 sequence (Q14191 480-1251): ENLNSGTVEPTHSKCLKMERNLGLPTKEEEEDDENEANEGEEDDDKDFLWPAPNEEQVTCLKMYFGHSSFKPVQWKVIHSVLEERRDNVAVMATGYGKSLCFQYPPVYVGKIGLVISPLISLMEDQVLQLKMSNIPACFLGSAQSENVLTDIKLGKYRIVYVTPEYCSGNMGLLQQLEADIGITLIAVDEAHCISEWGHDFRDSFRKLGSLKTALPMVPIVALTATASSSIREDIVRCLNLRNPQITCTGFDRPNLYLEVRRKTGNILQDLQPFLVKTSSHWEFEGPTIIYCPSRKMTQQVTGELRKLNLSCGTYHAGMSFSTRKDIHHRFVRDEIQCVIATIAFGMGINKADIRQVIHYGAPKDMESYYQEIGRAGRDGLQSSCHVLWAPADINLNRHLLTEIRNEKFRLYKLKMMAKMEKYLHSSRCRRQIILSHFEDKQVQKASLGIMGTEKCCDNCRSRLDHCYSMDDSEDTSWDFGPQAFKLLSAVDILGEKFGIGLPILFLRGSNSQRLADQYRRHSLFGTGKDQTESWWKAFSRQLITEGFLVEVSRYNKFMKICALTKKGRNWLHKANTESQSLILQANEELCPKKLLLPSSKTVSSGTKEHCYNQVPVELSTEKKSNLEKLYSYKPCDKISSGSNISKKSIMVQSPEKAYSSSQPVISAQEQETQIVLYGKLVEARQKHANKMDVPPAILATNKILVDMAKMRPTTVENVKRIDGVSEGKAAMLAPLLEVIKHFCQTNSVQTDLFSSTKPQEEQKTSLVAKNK
The assay is described as follows: Biochemical Activity Assays.

Sequence of Bifunctional 3'-5' exonuclease/ATP-dependent helicase WRN (Q14191 whole entry): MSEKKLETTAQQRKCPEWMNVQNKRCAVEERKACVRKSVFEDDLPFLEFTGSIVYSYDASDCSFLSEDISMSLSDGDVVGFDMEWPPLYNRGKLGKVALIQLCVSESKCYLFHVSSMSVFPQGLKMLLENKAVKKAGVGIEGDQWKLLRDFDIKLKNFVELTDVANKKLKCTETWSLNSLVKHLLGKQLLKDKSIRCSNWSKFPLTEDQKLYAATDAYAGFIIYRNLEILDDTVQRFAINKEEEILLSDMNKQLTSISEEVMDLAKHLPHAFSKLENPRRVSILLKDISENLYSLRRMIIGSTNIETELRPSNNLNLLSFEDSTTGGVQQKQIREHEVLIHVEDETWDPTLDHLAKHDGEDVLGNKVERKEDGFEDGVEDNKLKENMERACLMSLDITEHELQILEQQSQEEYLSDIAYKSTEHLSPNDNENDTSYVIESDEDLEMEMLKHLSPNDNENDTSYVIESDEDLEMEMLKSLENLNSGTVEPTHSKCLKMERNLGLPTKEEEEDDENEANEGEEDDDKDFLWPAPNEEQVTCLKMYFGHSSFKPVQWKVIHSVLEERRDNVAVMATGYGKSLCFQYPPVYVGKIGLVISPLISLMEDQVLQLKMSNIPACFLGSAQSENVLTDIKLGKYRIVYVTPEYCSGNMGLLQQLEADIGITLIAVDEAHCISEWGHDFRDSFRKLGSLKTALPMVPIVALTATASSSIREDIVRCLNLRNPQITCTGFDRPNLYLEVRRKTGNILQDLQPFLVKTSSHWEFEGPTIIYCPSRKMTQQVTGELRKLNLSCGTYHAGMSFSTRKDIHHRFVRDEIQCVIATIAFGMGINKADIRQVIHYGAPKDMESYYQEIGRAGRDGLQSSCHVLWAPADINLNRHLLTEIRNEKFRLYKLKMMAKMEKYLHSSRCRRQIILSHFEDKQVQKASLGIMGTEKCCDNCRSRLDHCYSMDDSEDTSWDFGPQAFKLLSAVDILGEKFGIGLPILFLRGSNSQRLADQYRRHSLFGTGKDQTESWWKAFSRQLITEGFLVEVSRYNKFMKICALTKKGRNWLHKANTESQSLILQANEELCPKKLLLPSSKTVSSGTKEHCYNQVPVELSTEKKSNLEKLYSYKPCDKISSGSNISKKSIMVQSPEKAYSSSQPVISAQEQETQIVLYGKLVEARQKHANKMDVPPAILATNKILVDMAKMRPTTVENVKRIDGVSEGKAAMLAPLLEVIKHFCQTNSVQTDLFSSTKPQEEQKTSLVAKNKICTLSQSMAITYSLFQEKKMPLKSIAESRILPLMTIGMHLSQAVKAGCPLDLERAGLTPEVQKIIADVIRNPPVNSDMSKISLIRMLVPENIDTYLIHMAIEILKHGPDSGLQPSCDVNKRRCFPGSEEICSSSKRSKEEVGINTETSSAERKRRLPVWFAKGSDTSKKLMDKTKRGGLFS

The IC50 is the concentration that inhibits the measured activity by half. A high value points to weaker potency. `CCc1c(N2CCN(C(=O)c3ncnc(C)c3O)CC2)c(=O)n2nc(-c3ccn4ncnc4c3)nc2n1CC(=O)Nc1ccc(C(F)(F)F)cc1Cl` [WO2025049746, Example 220]: the IC50 in assay [1] was determined as 111 nM; in assay [2], 96 nM.
For `CCc1c(N2CCN(C(=O)c3ncnc(C)c3O)CC2)c(=O)n2nc(-c3cc(C)c4c(c3)COC4(C)C)nc2n1CC(=O)Nc1ccc(C(F)(F)F)cc1Cl` [WO2025049746, Example 221] the same measures were 47 nM and 56 nM.
Turning to `CCc1c(N2CCN(C(=O)c3ncnc(C)c3O)CC2)c(=O)n2nc(-c3cccc4c3COC(C)(C)C4)nc2n1CC(=O)Nc1ccc(C(F)(F)F)cc1Cl` [WO2025049746, Example 222], the results for the IC50 in assay [1] and in assay [2] were 40 nM and 45 nM, respectively.
`CCc1c(N2CCN(C(=O)c3ncnc(C)c3O)CC2)c(=O)n2nc(-c3cccc4c3COC(C)(C)C4)nc2n1CC(=O)Nc1ccc(C(F)(F)F)cc1Cl` [WO2025049746, Example 223]: the IC50 in assay [1] was determined as 3830 nM; in assay [2] it was 1550 nM.
The matching figures for `CCc1c(N2CCN(C(=O)c3ncnc(C)c3O)CC2)c(=O)n2nc(-c3ccc4c(c3)CC(F)(F)C4)nc2n1CC(=O)Nc1ccc(C(F)(F)F)cc1Cl` [WO2025049746, Example 224]: 47 nM and 47 nM.
The matching figures for `CCc1c(N2CCN(C(=O)c3ncnc(C)c3O)CC2)c(=O)n2nc(-c3ccc4oc(=O)n(C)c4c3)nc2n1CC(=O)Nc1ccc(C(F)(F)F)cc1Cl` [WO2025049746, Example 225]: 27 nM and 32 nM.
Regarding `CCc1c(N2CCN(C(=O)c3ncnc(C)c3O)CC2)c(=O)n2nc(-c3ccc4c(c3)CC[C@H]4OC(F)F)nc2n1CC(=O)Nc1ccc(C(F)(F)F)cc1Cl` [WO2025049746, Example 226], the figures for the IC50 in assay [1] and in assay [2] were 74 nM and 98 nM, respectively.
For `CCc1c(N2CCN(C(=O)c3ncnc(C)c3O)CC2)c(=O)n2nc(-c3ccc4c(c3)CCC4OC(F)F)nc2n1CC(=O)Nc1ccc(C(F)(F)F)cc1Cl` (stereo unspecified) [WO2025049746, Example 227] the same measures were 95 nM and 89 nM.
The matching figures for `CCc1c(N2CCN(C(=O)c3ncnc(C)c3O)CC2)c(=O)n2nc(-c3ccc4c(c3)CCO[C@@H]4C)nc2n1CC(=O)Nc1ccc(C(F)(F)F)cc1Cl` [WO2025049746, Example 228]: 32 nM and 28 nM.
Turning to `CCc1c(N2CCN(C(=O)c3ncnc(C)c3O)CC2)c(=O)n2nc(-c3ccc4c(c3)CCO[C@H]4C)nc2n1CC(=O)Nc1ccc(C(F)(F)F)cc1Cl` [WO2025049746, Example 229], the IC50 in assay [1] stood at 27 nM; in assay [2] it was 30 nM.
For `CCc1c(N2CCN(C(=O)c3ncnc(C)c3O)CC2)c(=O)n2nc(-c3ccc4c(c3)C[C@H](C)O4)nc2n1CC(=O)Nc1ccc(C(F)(F)F)cc1Cl` [WO2025049746, Example 230], the figures for the IC50 in assay [1] and in assay [2] were 39 nM and 45 nM, respectively.
With `CCc1c(N2CCN(C(=O)c3ncnc(C)c3O)CC2)c(=O)n2nc(-c3ccc4c(c3)C[C@@H](C)O4)nc2n1CC(=O)Nc1ccc(C(F)(F)F)cc1Cl` [WO2025049746, Example 231], the values for the IC50 in assay [1] and in assay [2] were 40 nM and 49 nM, respectively.
The matching figures for `CCc1c(N2CCN(C(=O)c3ncnc(C)c3O)CC2)c(=O)n2nc(-c3cccc4c3OC(F)(F)O4)nc2n1CC(=O)Nc1ccc(C(F)(F)F)cc1Cl` [WO2025049746, Example 232]: 77 nM and 67 nM.
`CCc1c(N2CCN(C(=O)c3ncnc(C)c3O)CC2)c(=O)n2nc(-c3ccc4c(c3)oc(=O)n4C)nc2n1CC(=O)Nc1ccc(C(F)(F)F)cc1Cl` [WO2025049746, Example 233]: the IC50 in assay [1] stood at 21 nM; in assay [2], 24 nM.
As for `CCc1c(N2CCN(C(=O)c3ncnc(C)c3O)CC2)c(=O)n2nc(-c3ccc4nonc4c3)nc2n1CC(=O)Nc1ccc(C(F)(F)F)cc1Cl` [WO2025049746, Example 234], the 50% inhibitory concentration (IC50) in assay [1] was determined as 67 nM; in assay [2] it was 75 nM.
For `CCc1c(N2CCN(C(=O)c3ncnc(C)c3O)CC2)c(=O)n2nc(-c3ccc4nn(C)cc4c3)nc2n1CC(=O)Nc1ccc(C(F)(F)F)cc1Cl` [WO2025049746, Example 235] the same measures were 23 nM and 26 nM.
As for `CCc1c(N2CCN(C(=O)c3ncnc(C)c3O)CC2)c(=O)n2nc(-c3ccc4ncn(C)c4c3)nc2n1CC(=O)Nc1ccc(C(F)(F)F)cc1Cl` [WO2025049746, Example 236], the IC50 in assay [1] and in assay [2] was 25 nM throughout.
With `CCc1c(N2CCN(C(=O)c3ncnc(C)c3O)CC2)c(=O)n2nc(-c3ccc4nc(C)oc4c3)nc2n1CC(=O)Nc1ccc(C(F)(F)F)cc1Cl` [WO2025049746, Example 237], the IC50 in assay [1] was found to be 82 nM; in assay [2], 84 nM.
Take `CCc1c(N2CCN(C(=O)c3ncnc(C)c3O)CC2)c(=O)n2nc(-c3ccc4c(c3C)CCO4)nc2n1CC(=O)Nc1ccc(C(F)(F)F)cc1Cl` [WO2025049746, Example 238]: the IC50 amounted to 30 nM in assay [1] and 33 nM in assay [2].
Regarding `CCc1c(N2CCN(C(=O)c3ncnc(C)c3O)CC2)c(=O)n2nc(-c3ccn4nccc4c3C)nc2n1CC(=O)Nc1ccc(C(F)(F)F)cc1Cl` [WO2025049746, Example 239], the 50% inhibitory concentration (IC50) in assay [1] amounted to 21 nM; in assay [2], 22 nM.
In the case of `CCc1c(N2CCN(C(=O)c3ncnc(C)c3O)CC2)c(=O)n2nc(-c3cc(C)n4nccc4c3)nc2n1CC(=O)Nc1ccc(C(F)(F)F)cc1Cl` [WO2025049746, Example 240], the IC50 in assay [1] turned out to be 24 nM; in assay [2], 27 nM.
Turning to `CCc1c(N2CCN(C(=O)c3ncnc(C)c3O)CC2)c(=O)n2nc(-c3ccn4nccc4c3F)nc2n1CC(=O)Nc1ccc(C(F)(F)F)cc1Cl` [WO2025049746, Example 241], the IC50 in assay [1] is 18 nM; in assay [2] it was 19 nM.
For `CCc1c(N2CCN(C(=O)c3ncnc(C)c3O)CC2)c(=O)n2nc(-c3cc4ccnn4cc3F)nc2n1CC(=O)Nc1ccc(C(F)(F)F)cc1Cl` [WO2025049746, Example 242] the same measures were 19 nM and 18 nM.
`CCc1c(N2CCN(C(=O)c3ncnc(C)c3O)CC2)c(=O)n2nc(-c3cc4ccnn4cc3C)nc2n1CC(=O)Nc1ccc(C(F)(F)F)cc1Cl` [WO2025049746, Example 243]: the IC50 in assay [1] was 26 nM; in assay [2], 34 nM.
For the compound `CCc1c(N2CCN(C(=O)c3ncnc(C)c3O)CC2)c(=O)n2nc(-c3cc4c(cc3F)[C@@H](OC)CC4)nc2n1CC(=O)Nc1ccc(C(F)(F)F)cc1Cl` [WO2025049746, Example 244], the IC50 in assay [1] turned out to be 24 nM; in assay [2], 23 nM.
`CCc1c(N2CCN(C(=O)c3ncnc(C)c3O)CC2)c(=O)n2nc(-c3cc4c(cc3F)[C@H](OC)CC4)nc2n1CC(=O)Nc1ccc(C(F)(F)F)cc1Cl` [WO2025049746, Example 245]: the figures for the IC50 in assay [1] and in assay [2] were 26 nM and 28 nM, respectively.
The matching figures for `CCc1c(N2CCN(C(=O)c3ncnc(C)c3O)CC2)c(=O)n2nc(-c3ccn4c(C)nnc4c3)nc2n1CC(=O)Nc1ccc(C(F)(F)F)cc1Cl` [WO2025049746, Example 246]: 37 nM and 42 nM.
For the compound `CCc1c(N2CCN(C(=O)c3ncnc(C)c3O)CC2)c(=O)n2nc(-c3ccn4nc(C)cc4c3)nc2n1CC(=O)Nc1ccc(C(F)(F)F)cc1Cl` [WO2025049746, Example 247], the IC50 was determined as 26 nM in assay [1] and 27 nM in assay [2].
In the case of `CCc1c(N2CCN(C(=O)c3ncnc(C)c3O)CC2)c(=O)n2nc(-c3ccc4nn(C(F)F)cc4c3)nc2n1CC(=O)Nc1ccc(C(F)(F)F)cc1Cl` [WO2025049746, Example 248], the IC50 in assay [1] was found to be 24 nM; in assay [2], 26 nM.
Take `CCc1c(N2CCN(C(=O)c3ncnc(C)c3O)CC2)c(=O)n2nc(-c3cc4c(cc3F)O[C@@H](C)C4)nc2n1CC(=O)Nc1ccc(C(F)(F)F)cc1Cl` [WO2025049746, Example 249]: the IC50 in assay [1] came to 25 nM; in assay [2] it was 26 nM.
With `CCc1c(N2CCN(C(=O)c3ncnc(C)c3O)CC2)c(=O)n2nc(-c3cc4c(cc3F)O[C@H](C)C4)nc2n1CC(=O)Nc1ccc(C(F)(F)F)cc1Cl` [WO2025049746, Example 250], the concentration for half-maximal inhibition (IC50) in assay [1] was 22 nM; in assay [2], 20 nM.
Consider `CCc1c(N2CCN(C(=O)c3ncnc(C)c3O)CC2)c(=O)n2nc(-c3ccn4nc(F)cc4c3)nc2n1CC(=O)Nc1ccc(C(F)(F)F)cc1Cl` [WO2025049746, Example 251], for which the IC50 came to 26 nM in assay [1] and 25 nM in assay [2].
As to `CCc1c(N2CCN(C(=O)c3ncnc(C)c3O)CC2)c(=O)n2nc(-c3cnc4c(ccn4C)c3)nc2n1CC(=O)Nc1ccc(C(F)(F)F)cc1Cl` [WO2025049746, Example 252], the values for the IC50 in assay [1] and in assay [2] were 19 nM and 21 nM, respectively.
With `CCc1c(N2CCN(C(=O)c3ncnc(C)c3O)CC2)c(=O)n2nc(-c3ccc4ccnn4c3)nc2n1CC(=O)Nc1ccc(C(F)(F)F)cc1Cl` [WO2025049746, Example 253], the IC50 in assay [1] and in assay [2] was 24 nM each time.
In the case of `CCc1c(N2CCN(C(=O)c3ncnc(C)c3O)CC2)c(=O)n2nc(-c3ccc4c(c3)ncn4C)nc2n1CC(=O)Nc1ccc(C(F)(F)F)cc1Cl` [WO2025049746, Example 254], the IC50 in assay [1] came to 25 nM; in assay [2], 24 nM.
`CCc1c(N2CCN(C(=O)c3ncnc(C)c3O)CC2)c(=O)n2nc(-c3ccc4nc(C)cn4c3)nc2n1CC(=O)Nc1ccc(C(F)(F)F)cc1Cl` [WO2025049746, Example 255]: the IC50 came to 23 nM in assay [1] and 24 nM in assay [2].
The matching figures for `CCc1c(N2CCN(C(=O)c3ncnc(C)c3O)CC2)c(=O)n2nc(-c3cc4cn(C)nc4cc3F)nc2n1CC(=O)Nc1ccc(C(F)(F)F)cc1Cl` [WO2025049746, Example 256]: 23 nM and 22 nM.
As to `CCc1c(N2CCN(C(=O)c3ncnc(C)c3O)CC2)c(=O)n2nc(-c3ccc4c(c3)CSC4)nc2n1CC(=O)Nc1ccc(C(F)(F)F)cc1Cl` [WO2025049746, Example 257], the IC50 is 28 nM in assay [1] and 30 nM in assay [2].
